{"source": "patent US6596297B2", "about": "“Biodegradable microbicidal vaginal barrier device” (New York Blood Center, Inc., priority 2002, dated 2003)", "origin": "cited, not measured here", "test_system": "HIV-1", "data": [{"substance": "Nonoxynol-9 [N-9]", "values": [{"measurement": "risk of sexual transmission of HIV-1", "value": "increase the risk of sexual transmission of HIV-1"}]}]}
